Source: article PMC4520264 (Organic & biomolecular chemistry, 2015)
pKd: −log10 of the molar value.

Columns and labels:
Assay type in all cases: binding
[1] = target: HL1.0.1-TO1 (scFv fluorescence-activating protein, FAP); experiment: fluorescence; details: read-out: TO1-2p-Cy5
[2] = target: HL1.0.1-TO1 (scFv fluorescence-activating protein, FAP); experiment: fluorescence ligand depletion titration with […] FAP; details: read-out: TO1-2p
[3] = target: R1 (scFv fluorescence-activating protein, FAP); experiment: fluorescence ligand depletion titration with […] R1; details: read-out: TO
[4] = target: R1 (scFv fluorescence-activating protein, FAP); experiment: fluorescence; details: read-out: Coumarin-TO

Molecule: TO1-2p-Cy5
- pKd [1]: 7.92

Molecule: TO1-2p
- pKd [2]: 9.52

Molecule: CN1/C(=C/c2cc[n+](C)c3ccccc23)Sc2ccccc21 [TO]
- pKd [3]: 9.77

Molecule: coumarin-TO
- pKd [4]: 8.96
